How the values were obtained:
Format in all cases: cell-based, Human
[1] = system: U2932-R cells (zebutinib-resistant ABC-DLBCL cell line); assay: CCK8 cell viability, zebutinib on U2932-R
Source text: (§1) Human ABC-DLBCL cell lines (SUDHL2, U2932 and OCI-LY10) are purchased from American Type Culture Collection (ATCC) cell bank. The BTK inhibitor-resistant ABC-DLBCL-R cell line is constructed according to the drug concentration gradient increment method, and the BTK inhibitor used in the present disclosure is zebutinib. […] All the patients were diagnosed according to the 2016 revision of the WHO classification of lymphoid neoplasms. Before the study, written informed consent was obtained from each patient and healthy volunteer.
(§2) The drug concentration gradient is used to induce zebutinib resistance to BTK inhibitor in ABC-DLBCL cell lines (SUDHL2, U2932 and OCI-LY10). Tumor cells in the logarithmic growth phase are taken, and zebutinib at a starting concentration of 2 micromoles per liter (μmol/L) (about 1/10 of the IC50 of the parental cell line) is added to act for 24 hours (h). […]
(§3) Cell activity is measured using a cell counting kit-8 (CCK-8, Dojindo, Japan). […] The absorbance at 450 nm is measured by ELX808 microplate spectrophotometer (BioTekInstruments, Winooski, VT, USA). Colony formation experiment: cells are inoculated into a 6-well plate with 500 cells per well, three copies in one group, and cultured for 10-14 days to form colonies, followed by […] in formaldehyde and staining with crystal violet, and the visible colonies are counted. […]

[2] = system: SUDHL2-R cells (zebutinib-resistant ABC-DLBCL cell line); assay: CCK8 cell viability, zebutinib on SUDHL2-R
Source text: as §1, §2, §3

[3] = system: OCI-LY10-R cells (zebutinib-resistant ABC-DLBCL cell line); assay: CCK8 cell viability, zebutinib on OCI-LY10-R
Source text: as §1, §2, §3

SUDHL2 cells = assay: CCK8 cell viability, zebutinib on SUDHL2; details: parental ABC-DLBCL cell line SUDHL2, CCK8 method; read-out: half maximal inhibitory concentration (IC50)
Source text: as §1, §2, §3

OCI-LY10 cells = assay: CCK8 cell viability, zebutinib on OCI-LY10; details: parental ABC-DLBCL cell line OCI-LY10, CCK8 method; read-out: half maximal inhibitory concentration (IC50)
Source text: as §1, §2, §3

U2932 cells = assay: CCK8 cell viability, zebutinib on U2932; details: parental ABC-DLBCL cell line U2932, CCK8 method; read-out: half maximal inhibitory concentration (IC50)
Source text: as §1, §2, §3

SMILES: C=CC(=O)N1CCC([C@@H]2CCNc3c(C(N)=O)c(-c4ccc(Oc5ccccc5)cc4)nn32)CC1 [zebutinib]
- resistance index (RI) ([1]; RI=IC50 of drug-resistant cell line/IC50 of parental cell line, U2932-R vs U2932): 5.14
- IC50 ([1]; drug-resistant cell line U2932-R, CCK8 method, read-out: half maximal inhibitory concentration (IC50)): 144 µM
- resistance index (RI) ([2]; RI=IC50 of drug-resistant cell line/IC50 of parental cell line, SUDHL2-R vs SUDHL2): 5.28
- IC50 ([2]; drug-resistant cell line SUDHL2-R, CCK8 method, read-out: half maximal inhibitory concentration (IC50)): 90.3 µM
- resistance index (RI) ([3]; RI=IC50 of drug-resistant cell line/IC50 of parental cell line, OCI-LY10-R vs OCI-LY10): 5.23
- IC50 ([3]; drug-resistant cell line OCI-LY10-R, CCK8 method, read-out: half maximal inhibitory concentration (IC50)): 118 µM
- IC50 (SUDHL2 cells): 17.1 µM
- IC50 (OCI-LY10 cells): 22.5 µM
- IC50 (U2932 cells): 28 µM
